Several values for one entry are separate records, joined by “and”; a condition that tells them apart may be missing. Identical values can stand only once.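 These data come from cells grown in 96-well plates and exposed to compound for 48 hours at five concentrations. Here, GI50 denotes the concentration required for 50% inhibition of growth. TGI marks complete inhibition of growth.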
Key:
Assay in all cases: NCI tumour cell line growth inhibition, 48 h
[1] = tested on: NCI-H23 lung
[2] = tested on: HOP-92 NSCLC
[3] = tested on: SW-620 colon
[4] = tested on: NCI-H522 lung
[5] = tested on: M14 melanoma
[6] = tested on: SF-268 CNS
[7] = tested on: SN12C renal
[8] = tested on: MDA-MB-231 breast
[9] = tested on: BT-549 breast
[10] = tested on: MCF7 breast

Compound	TGI [1]	TGI [2]	TGI [3]	TGI [4]	TGI [5]	TGI [6]	TGI [7]	TGI [8]	TGI [9]	TGI [10]	GI50 [8]	GI50 [1]	GI50 [2]	GI50 [4]	GI50 [5]	GI50 [6]	GI50 [7]	GI50 [10]	GI50 [3]	GI50 [9]
OCC(O)COc1c(Cl)ccc(Cl)c1Cl (configuration not stated)	> 100 µM	> 100 µM	> 100 µM	> 100 µM	> 100 µM	> 100 µM	> 100 µM													
O=C(N/C(=C\c1ccc(Br)cc1)c1nc2ccccc2s1)c1ccccc1	> 100 µM	> 100 µM	> 100 µM	> 100 µM	> 100 µM	> 100 µM	> 100 µM													
Cc1[nH]c(=O)nc(CC(O)(c2ccccc2)c2ccccc2)c1-c1ccccc1	> 100 µM	> 100 µM	> 100 µM	> 100 µM	> 100 µM	> 100 µM	> 100 µM													
O=C(N=Nc1c(O)[nH]c2c(Cl)cc(Cl)cc12)c1ccncc1	56.5 µM	> 100 µM	> 100 µM		> 100 µM		64.4 µM	39.4 µM	> 100 µM	> 100 µM										
CC(=O)OCC(OC(C)=O)C(OC(C)=O)C(OC(C)=O)C(=O)CNn1c(-c2ccccc2)nc2ccc(Br)cc2c1=O (configuration not stated)	> 100 µM		> 100 µM	> 100 µM	> 100 µM	> 100 µM	> 100 µM													
COc1cc2nc(-c3ccc(-n4cncc4-c4ccc(N)cc4)cc3)sc2c(OC)c1OC	23.7 µM	4.08 µM		21.6 µM	> 100 µM	62.1 µM	> 100 µM	> 100 µM		> 100 µM	3.66 µM	3.87 µM	0.446 µM	2.74 µM	2.1 µM	12.3 µM	8.95 µM	3.02 µM		
COc1ccc2[nH]c(-c3cccc(N(C)C)c3)cc(=O)c2c1			> 100 µM	0.526 µM and 2.56 µM	> 100 µM	33.7 µM	> 100 µM	> 100 µM		> 100 µM	2.1 µM	0.664 µM	3.25 µM	0.407 µM	0.325 µM and 0.552 µM	0.657 µM	0.654 µM		0.303 µM	
COc1cc(-c2nc(SCC(=O)Nc3ccc(C(C)=O)cc3)[nH]c(=O)c2C#N)cc(OC)c1OC	> 100 µM	> 100 µM	> 100 µM		> 100 µM	> 100 µM	> 100 µM	> 100 µM	99.7 µM	> 100 µM	38.7 µM	> 100 µM	22.6 µM		37.4 µM	68.7 µM	70.2 µM	40 µM	46.7 µM	32 µM
Oc1ccc(/C=N/Nc2nc3ccccc3s2)c(O)c1	> 100 µM	> 100 µM	> 100 µM	6.11 µM	12.1 µM	> 100 µM	57.9 µM	12.9 µM		9.39 µM	1.69 µM	3.03 µM	4.46 µM	1.39 µM	1.38 µM	1.11 µM	2.09 µM	1.65 µM	3.47 µM	

— PubChem BioAssay (NCI)
